Data published in ChEMBL document CHEMBL4152231, “Identification of novel 2-benzyl-1-indanone analogs as interleukin-5 inhibitors” (Eur J Med Chem, 2018).

Target: T1, Interleukin-5 (Mus musculus) (UniProt P04401)
T1 sequence (whole entry): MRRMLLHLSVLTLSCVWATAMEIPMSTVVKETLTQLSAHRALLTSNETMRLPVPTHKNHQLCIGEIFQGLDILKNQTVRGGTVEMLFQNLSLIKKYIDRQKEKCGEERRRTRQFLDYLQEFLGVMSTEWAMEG
Assay: Inhibition of IL-5 in mouse Y16 cells assessed as reduction in cell proliferation at 30 uM after 48 hrs by WST-1 assay relative to control
Type: cell-based

Structure (SMILES) | inhibition
COc1ccc(COc2cccc3c2C(=O)/C(=C/c2ccc(O)cc2)C3)cc1 | 0%
O=C1c2c(O)cccc2CC1Cc1ccc(O)cc1 (stereo unspecified) | 30%
O=C1/C(=C/c2ccccc2)Cc2cccc(O)c21 | 40%
COCOc1ccc(CC2Cc3cccc(OCC4CCCCC4)c3C2=O)cc1 (stereo unspecified) | 90%
O=C1c2c(cccc2OCCc2ccccc2)CC1Cc1cccc(O)c1 (stereo unspecified) | 60.5%
COc1ccc(CC2Cc3cccc(OCC4CCCCC4)c3C2=O)cc1 (stereo unspecified) | 44%
O=C1c2c(cccc2OCCc2ccccc2)CC1Cc1ccc(O)cc1 (stereo unspecified) | 59%
O=C1c2c(cccc2OCC2CCCCC2)CC1Cc1ccccc1O (stereo unspecified) | 13%
O=C1c2c(cccc2OCC2CCCCC2)CC1Cc1ccc(O)cc1 (stereo unspecified) | 100%
COc1ccc(/C=C2\Cc3cccc(OCC4CCCCC4)c3C2=O)cc1 | 5.6%
COc1ccc(/C=C2\Cc3cccc(OCc4ccc(OC)cc4)c3C2=O)cc1 | 6%

Now from value to compound:

inhibition | Structure (SMILES)
25% | COc1ccc(/C=C2\Cc3cccc(O)c3C2=O)cc1
23.5% | COCOc1ccc(/C=C2\Cc3cccc(OCC4CCCCC4)c3C2=O)cc1
5% | COc1ccc(COc2cccc3c2C(=O)/C(=C/c2ccccc2)C3)cc1
32% | O=C1/C(=C/c2ccc(O)cc2)Cc2cccc(OCc3ccc([N+](=O)[O-])cc3)c21
70% | O=C1c2c(cccc2OCc2ccccc2)CC1Cc1ccc(O)cc1 (stereo unspecified)
96% | O=c1c(Cc2ccc(O)cc2)coc2cccc(OCC3CCCCC3)c12
17% | COc1ccc(COc2cccc3c2C(=O)/C(=C/c2ccc(C)cc2)C3)cc1
78% | O=C1c2c(cccc2OCCC2CCCCC2)CC1Cc1ccc(O)cc1 (stereo unspecified)
47% | O=C1c2c(cccc2OCCc2ccccc2)CC1Cc1ccccc1O (stereo unspecified)
70% | O=C1c2c(cccc2OCC2CCCCC2)CC1Cc1ccc(Cl)cc1 (stereo unspecified)
68% | Cc1ccc(CC2Cc3cccc(OCC4CCCCC4)c3C2=O)cc1 (stereo unspecified)
35% | O=C1/C(=C/c2ccc(O)cc2)Cc2cccc(O)c21
95% | O=C1c2c(cccc2OCC2CCCCC2)CC1Cc1cccc(O)c1 (stereo unspecified)
29% | COc1ccc(COc2cccc3c2C(=O)/C(=C/c2ccc(Cl)cc2)C3)cc1
47% | O=C1/C(=C/c2ccc(O)cc2)Cc2cccc(OCC3CCCCC3)c21
